Tests used:
Type in all cases: cell-based, murine
[1] = tested on: B16 melanoma cells; assay: Calcium dependence of cell aggregation; settings: absence of Ca^++; 3 lines, after 1 and 3 hours
[2] = tested on: B16 C3 line; assay: Proliferation, cell count (Malassez hemocytometer); settings: B16 C3 on PS in the presence of MSH (same in its absence), 48 hours
Method: (§1) The cells are cultured in medium supplemented by 10% foetal calf serum, 1% L-Glutamine and 0.5% antibiotics (penicillin, streptomycin).
(§2) —b—proliferation: 10,000 cells are seeded per cm^2. The cells are counted (Malassez hemocytometer) after culture for 24 and 48 hours.
(§3) It should be noted that the B16 F0 and B16 F10 lines proliferate more on cellulose that the B16 C3 line, which is non-metastatic. The number of B16 F0 and F10 cells is multiplied by 3 on cellulose. It is multiplied by 6 on PS, in the presence or absence of MSH 10^−7 M melanin-stimulating hormone used as a second control.

[3] = tested on: B16 F0 and B16 F10 lines; assay: Proliferation, cell count (Malassez hemocytometer); settings: B16 F0 and F10 on PS in the presence of MSH 10^−7 M (same in its absence)
Method: as §1, §2, §3

[4] = tested on: Fn; assay: Fn synthesis (indirect immunolabelling); settings: three melanoma lines cultured on PS with MSH

Substance: monencin
- percentage of cells isolated [1]: very significantly increased

Substance: melanin-stimulating hormone [MSH]
- number of cells multiplied by [2]: 2
- number of cells multiplied by [3]: 6
- Fn synthesis [4]: increase in Fn synthesis

From patent US20070269793A1, “Bioactive Boxes for Cellular Cultures” (priority 2003, published 2007)
